Assays:
[1] = target: T1, boron transporter (BOR1) BOR1-GFP fusion protein (Arabidopsis thaliana, UniProt Q8VYR7); assay: solubilization (extraction) of BOR1-GFP fusion protein from membranes; settings: amphipathic compound at 1.0 wt %
T1 construct: made in house; host or cells: Saccharomyces cerevisiae FGY217
Method: The ability of PSAs and PSEs to solubilize membrane proteins and to stabilize the structures of membrane proteins was evaluated using boron transporter (BOR1), a membrane protein. BOR1 was isolated from Arabidopsis thaliana, and was expressed in the form of a fusion protein having a GFP tag at the C-terminus in Saccharomyces cerevisiae FGY217 cells. This fusion protein has been proven to have boron transporting activity and is therefore involved in both structural and functional analysis of membrane proteins.
The ability of amphipathic compound PSAs and PSEs to solubilize the boron transporter (BOR1) membrane protein was evaluated.
Specifically, membranes containing BOR1-GFP fusion proteins were treated with an existing amphipathic compound (DDM), PSAs (PSA-C9, PSA-C10 and PSA-C11), or PSEs (PSE-C9, PSE-C11 and PSE-C13) at a concentration of 1.0 wt %. The solubilization efficiencies of PSA-C9, PSA-C10 and PSE-C9 were about 80% similar to the solubilization efficiency of DDM. In particular, the BOR1-GFP protein was quantitatively extracted (˜100%) using PSE-C11 having medium length chains, thus confirming that PSE-C11 is particularly useful for solubilization of BOR1-GFP.
(§1) Specifically, Arabidopsis thaliana-derived BOR1 was expressed in the form of a fusion protein having a GFP tag at the C-terminus in Saccharomyces cerevisiae FGY217 cells. The cells were grown in an URA-medium supplemented with 0.1% glucose. 2% galactose was added to the cell culture to induce protein expression and the cells were cultured at 20° C. for 18 hours (see Drew, D. et al., Nat. Protoc. 2008, 3, 784-798.). After culture, the cells were harvested and used to obtain the cell membranes (see Leung, J. et al., Protein Expr. Purif. 2010, 72, 139-146.). Membranes containing BOR1-GFP fusion proteins were diluted to a final total protein concentration of 2.8 mg/mL in PBS (pH7.4) supplemented with 1 wt % DDM, 1 wt % PSAs (PSA-C9, PSA-C10 or PSA-C11) or 1 wt % PSEs (PSE-C9, PSE-C11 or PSE-C13). The diluted samples were incubated at 4° C. for 1 hour with gentle shaking, and insoluble substances were removed by centrifugation at 14,000 g for 1 hour at 4° C. Supernatants containing the dissolved protein samples were incubated for 10 minutes at the specified temperature (35, 40, 45 or 50° C.), and strongly agglutinated proteins were removed by centrifugation at 14,000 g for 10 minutes at 4° C. 200 μL aliquots were taken from the supernatant and injected into a Superose 6 10/300 column equilibrated with 20 mM Tris-HCl (pH 7.5), 150 mM NaCl and 0.03% DDM. Each elution fraction was collected from a retention volume of 6.4 mL (i.e., after 6.4 mL of solution had passed), and added to a well of a clear bottom 96-well plate at a volume of 200 μL. GFP fluorescence generated in each fraction was measured using an excitation wavelength of 470 nm and an emission wavelength of 512 nm.

[2] = hydrodynamic radius of micelles by dynamic light scattering (DLS); assay type: physicochemical; settings: compound at 1.0 wt %
Method: Methods of measuring the radius of micelles are not particularly limited, and methods widely known in the art may be used. For example, dynamic light scattering (DLS) may be used.
(§2) Specifically, critical micellar concentrations (CMCs) were measured using hydrophobic fluorescent staining and diphenylhexatriene (DPH), and the hydrodynamic radii (Rh) of micelles formed by each compound at a concentration of 1.0 wt % were measured using dynamic light scattering (DLS). The results were compared with results obtained from an existing amphipathic molecule (detergent), DDM, and are shown in Table 1.
When measuring, each of PSAs, PSEs and TPSs was used at a concentration of 1.0 wt %.

[3] = target: T2, Salmonella typhimurium melibiose permease (MelB) (Salmonella typhimurium, UniProt P30878); assay: MelB extraction efficiency and thermal stability by SDS-PAGE and western immunoblotting; settings: 1.5 wt %, 0° C., 90 minutes (similar results at 45° C.)
T2 construct: made in house; host or cells: DW2 cells (melB and lacZY), Salmonella typhimurium DW2; plasmid pK95AHB/WT MelBst/CH10
Method: The ability of PSAs or PSEs to extract (solubilize) MelBst (Salmonella typhimurium melibiose permease) proteins and stabilize the structures thereof was measured. MelB proteins were extracted using PSAs, PSEs or DDM, and the amount of the extracted proteins and structural stability thereof were quantitatively analyzed by SDS-PAGE and western immunoblotting. The protein extraction efficiency and thermally stabilizing ability of the amphipathic compounds were simultaneously evaluated by extracting MelB proteins at four temperatures (0, 45, 55 or 65° C.) for 90 minutes using the amphipathic compounds at a concentration of 1.5 wt %.
Specifically, according to the method described in the journal article (P. S. Chae, et al., Chemistry. 2013, 19, 15645-15651.) published by the present inventors, proteins (MelBst) were produced using a plasmid pK95AHB/WT MelBst/CH10 containing a gene construct encoding wild-type MelB having 10×His tags at the C-terminus and Salmonella typhimurium DW2 cells (melB and lacZY). According to the method described in the journal article (A. S. Ethayathulla et al., Nat. Commun. 2014, 5, 3009), cells were cultured and the cell membranes were obtained from the cultured cells. Protein analysis was performed using a Micro BCA kit (Thermo Scientific, Rockford, Ill.). To measure solubilization/stability, membrane samples (the final concentration of membrane proteins was 10 mg/mL) containing MelBst were mixed with a solubilization buffer solution (20 mM sodium phosphate, pH 7.5, 200 mM NaCl, 10% glycerol and 20 mM melibiose) containing DDM, PSAs (PSA-C11) or PSEs (PSE-C9, PSE-C11, PSE-C13) at a concentration of 1.5% (w/v). Extracts were incubated at four different temperatures (0, 45, 55 and 65° C.) for 90 minutes. Fractions were removed by ultracentrifugation at 355,590 g for 45 minutes using a Beckman Optima™ MAX ultracentrifuge equipped with a No. 4 TLA-100 rotor. 20 μg of proteins was separated using a 15% SDS-PAGE gel. Next, immunoblotting was performed using Penta-His-HRP antibodies (Qiagen, Germantown, Md.). After performing SDS-PAGE and immunoblotting, the amount of solubilized MelB was quantitated and expressed as a percentage of the amount of MelB measured in the control group.

[4] = critical micelle concentration (CMC) by hydrophobic fluorescent staining with diphenylhexatriene (DPH); assay type: physicochemical
From the text: Methods of measuring CMC are not particularly limited, and methods widely known in the art may be used. For example, a fluorescence staining method using diphenylhexatriene (DPH) may be used.
To characterize PSAs of Preparation Examples 1 to 3 synthesized according to the synthetic method of Example 1; PSEs of Preparation Examples 4 to 7 synthesized according to the synthetic method of Example 2; TPS-Es and TPS-ELs of Preparation Examples 8 to 14 synthesized according to the synthetic method of Example 3; and TPS-As of Preparation Examples 15 to 17 synthesized according to the synthetic method of Example 4, the critical micellar concentrations (CMCs) of PSAs, PSEs and TPSs and the hydrodynamic radii (Rh) of formed micelles were measured.
as §2

[5] = target: T1, boron transporter (BOR1) BOR1-GFP fusion protein; assay: structural (thermal) stability of solubilized BOR1-GFP by fluorescence-based size exclusion chromatography (FSEC); settings: heated at 40° C. for 10 minutes, 1 wt % compound
Method: The ability of PSAs or PSEs to stabilize the structure of boron transporter (BOR1) was measured in an aqueous solution. That is, the BOR1 protein solubilized in each amphipathic compound was denatured by heating, and then structural stability of BOR1 was measured using fluorescence-based size exclusion chromatography (FSEC).
as §1

T2 sequence (P30878 whole entry): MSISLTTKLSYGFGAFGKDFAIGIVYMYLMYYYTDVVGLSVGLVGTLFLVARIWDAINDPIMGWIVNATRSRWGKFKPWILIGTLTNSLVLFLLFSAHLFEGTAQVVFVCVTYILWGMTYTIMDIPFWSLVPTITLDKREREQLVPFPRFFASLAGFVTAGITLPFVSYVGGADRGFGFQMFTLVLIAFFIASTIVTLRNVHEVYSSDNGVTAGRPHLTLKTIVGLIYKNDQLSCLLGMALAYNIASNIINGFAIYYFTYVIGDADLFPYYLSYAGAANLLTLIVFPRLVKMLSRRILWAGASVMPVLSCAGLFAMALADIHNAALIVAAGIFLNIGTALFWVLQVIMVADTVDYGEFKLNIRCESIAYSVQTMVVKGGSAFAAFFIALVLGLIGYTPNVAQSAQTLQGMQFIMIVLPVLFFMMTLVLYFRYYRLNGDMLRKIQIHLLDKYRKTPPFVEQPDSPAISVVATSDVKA

**Q.** Which “solubilization efficiency of BOR1-GFP” value [1] does the source give for CCCCCCCCCOCC(COCCCCCCCCC)O[C@@H]1OC(CO[C@@H]2OC(CO)[C@@H](O)C(O)C2O)[C@@H](O[C@@H]2OC(CO)[C@@H](O)C(O)C2O)C(O[C@@H]2OC(CO)[C@@H](O)C(O)C2O)C1O[C@@H]1OC(CO)[C@@H](O)C(O)C1O (stereo partly drawn) [PSE-C9] here?
**A.** about 80%

**Q.** And the “Rh (nm), hydrodynamic radius of micelles” value [2]?
**A.** 3.19 ± 0.04 nm

**Q.** What about the MelB extraction efficiency [3] of the same molecule?
**A.** extracted at an efficiency similar to the efficiency observed in the case of DDM

**Q.** And the “CMC” value [4]?
**A.** ~0.026 mM

**Q.** And the “CMC (wt %)” value [4]?
**A.** ~0.0030 wt %

**Q.** What about the “structural stability of solubilized BOR1-GFP after heating (RFU, FSEC)” value [5] of the same molecule?
**A.** greatly improved compared to DDM

Source: patent publication US20190169218A1, “AMPHIPATHIC COMPOUND HAVING NOVEL PENTA-SACCHARIDE HYDROPHILIC GROUP AND USE THEREOF” (Industry-University Cooperation Foundation Hanyang …, priority 2016, published 2019)
